In patent US5773458A, “1-azabicycloheptane derivatives” (American Home Products Corporation, priority 1997, dated 1998):

Target: T1, M1 acetylcholine receptors (Homo sapiens, UniProt P11229)
T1 construct: expressed in transfected cells; host or cells: Chinese Hamster Ovary (CHO) cells, CMV vector
T1 sequence (P11229 1-460): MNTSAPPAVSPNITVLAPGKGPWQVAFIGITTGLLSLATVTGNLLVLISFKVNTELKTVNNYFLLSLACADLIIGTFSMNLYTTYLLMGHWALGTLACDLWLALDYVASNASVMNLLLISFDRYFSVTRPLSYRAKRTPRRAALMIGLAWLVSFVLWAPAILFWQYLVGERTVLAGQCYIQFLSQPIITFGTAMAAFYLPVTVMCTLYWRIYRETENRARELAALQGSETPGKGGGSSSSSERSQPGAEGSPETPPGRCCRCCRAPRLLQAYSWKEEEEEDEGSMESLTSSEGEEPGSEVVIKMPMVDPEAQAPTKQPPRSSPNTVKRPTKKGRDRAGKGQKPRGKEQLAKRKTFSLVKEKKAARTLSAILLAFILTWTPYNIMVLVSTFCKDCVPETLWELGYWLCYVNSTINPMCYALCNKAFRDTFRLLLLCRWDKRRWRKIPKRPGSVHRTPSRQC
Assay: Phosphoinositide (PI) hydrolysis in transfected CHO cells
Type: cell-based
Conditions: statement in words, no figures given
Procedure: The tubes are incubated for one hour at 37° C. The reaction is quenched with chloroform and the phosphatidyl inositols are extracted with methanol and chloroform. Phase separation is assured with the addition of methanol and water followed by centrifugation. The tritiated inositol phosphates are recovered on BioRad AG 1-X8 anion exchange resin in the formate cycle. After washing the resin with water and myo-inositol, the inositol phosphates are eluted with ammonium formate/formic acid, collected and subjected to liquid scintillation spectroscopy.

## CNC(=O)O[C@@H]1C[N+]2([O-])CC[C@@H]1C2 (relative stereo) [Example 1, (exo)--Methylcarbamic acid 1-oxy-1-aza-bicyclo[2.2.1]hept-3-yl ester]
  functional m1 muscarinic agonism: enhanced muscarinic agonism
